The test system of one data set is NMDA receptor. Briefly: Whole-cell patch clamp, NMDA-induced currents in cultured chick spinal cord neurons. The settings on record: for enhancement of the NMDA response (percent change): 100 μM pregnenolone sulfate. How it is done:
(§1) Cultures of dissociated spinal cord neurons were prepared from 7-day chick embryos as described by Wu et al. (Mol. Pharmacol. 37:597-602 (1990)). Briefly, dissociated cells were plated on collagen-coated 35-mm tissue culture dishes in Eagle's minimum essential medium supplemented with 2.4 mM glutamine, 10% (v/v) heat-inactivated horse serum, 5% (v/v) chick embryo extract, 100 units/ml penicillin, and 100 μg/ml streptomycin. Cultures were maintained in a humidified atmosphere of 5% CO2 /95% air at 37° C. Cytosine arabinoside (1 μM) was added after 36 hours to control the proliferation of non-neuronal cells. This medium was removed one day later and replaced with a similar medium supplemented with 20.5 mM glucose and 18 mM KCl, and containing 2.5% chick embryo extract. Fresh medium was added twice weekly. Cultured neurons were used in experiments 2-4 weeks after plating.
(§2) Electrophysiological experiments were carried out in 35-mm tissue culture dishes on the stage of an inverted phase-contrast microscope. Whole-cell currents were recorded by the whole-cell variant of the patch clamp technique described by Hamill et al. (Pflugers Arch. 391:85-100 (1981)). Patch electrodes were fabricated with a double pull from thin-wall borosilicate glass microcapillary pipets (Fischer) on a David Kopf vertical pipet puller (Model 700D). Electrode resistance was 5.2±0.12 M.OMEGA. (n=65) when filled with intracellular solution. The electrode solution usually contained (in mM): 10 KCl, 3 sodium gluconate, 140 potassium gluconate, 11 EGTA and 10 HEPES (pH adjusted to 7.2 with KOH). For GABA experiments, a high Cl-intracellular solution (in mM, 140 KCl, 3 NaCl, 1 MgCl2, 11 EGTA and 10 HEPES, pH adjusted to 7.2 with KOH) was used. The bath solution contained (in mM): 150 NaCl, 4 KCl, 1 CaCl2, 1 MgCl2 and 10 HEPES (pH adjusted to 7.2 with NaOH). Since NMDA-induced currents are subject to voltage-dependent block by extracellular Mg^2+, no magnesium salts were added to the bath solution. All experiments were performed at room temperature (23°-25° C.).
Recordings were made using a Yale MK V amplifier. After forming a tight seal (typically 1-10 G.OMEGA.) capacitative transients were minimized. The patch of membrane under the pipet tip was then ruptured by gentle suction to obtain the whole-cell configuration. Cells with series resistance greater than 10 M.OMEGA. were rejected. Series resistance, which initially measured 7.3± 0.14 M.OMEGA. (n=65), was compensated (>60%). Only cells with resting membrane potential more negative than -55 mV and input resistance in excess of 150 M.OMEGA. were used. All recordings were made with the cell membrane potential clamped at -70 mV. Currents were filtered at 1 kHz using an 8-pole Bessel filter and digitized (40 ms/point) using an on-line data acquisition system (pClamp, Axon Instruments).
Drug solutions were applied to single neurons by pressure ejection (15 psi) from 7-barrel pipets (Choi et al., J. Neurophysiol 45:605-620 (1981) and Chan, C. Y. and D. H. Farb, J. Neurosci. 5:2365-2373 (1985)). Pipets were pulled from Omega dot tubing to a tip diameter of about 1 μm per barrel and broken back to about 3-5 μm per barrel after filling. Seven-barrel pressure pipets were positioned approximately 50μm from the neuronal soma. Under these conditions, the drug solution in the pressure pipet rapidly and effectively replaces the solution surrounding the target neuron, with less than 10% dilution (Choi and Fischbach, J. Neurophysiol. 45:605-620 (1981)).
All drugs were obtained from Sigma, with the exception of AMPA hydrobromide (Research Biochemicals) and pregnenolone sodium sulfate (Steraloids). Stock solutions of steroids were prepared in dimethyl sulfoxide (final concentration, 0.5%, v/v).
Background: In patch-clamp work, channel activity is measured electrically.

The subject of data set [1] is non-NMDA glutamate receptor. Description: Whole-cell patch clamp, kainate- or AMPA-induced currents in cultured chick spinal cord neurons. The class given is cell-based. How it is done:
as §1
as §2, with “All experiments were performed at room temperature (23°-25° C.).” left out
(§3) Recordings were made using a Yale MK V amplifier. […] Series resistance, which initially measured 7.3± 0.14 M.OMEGA. […]

A further data set relates to glycine receptor. Briefly: Whole-cell patch clamp, glycine-induced currents in cultured chick spinal cord neurons. The class given is cell-based. The settings on record: for inhibition of the glycine response: 50 μM glycine, n=6. How it is done:
as §1
as §2, with “All experiments were performed at room temperature (23°-25° C.).” left out
as §3

The test system of another data set is GABA receptor. Briefly: Whole-cell patch clamp, GABA-induced currents in cultured chick spinal cord neurons. The class given is cell-based. How it is done: as §1
Electrophysiological experiments were carried out in 35-mm tissue culture dishes on the stage of an inverted phase-contrast microscope. Whole-cell currents were recorded by the whole-cell variant of the patch clamp technique described by Hamill et al. (Pflugers Arch. 391:85-100 (1981)). […]
as §3

Each structure is given as a SMILES string. Structures can show the parent of a compound that is named as a salt.

For the compound `C[C@]12CCC(=O)C=C1CC[C@@H]1[C@@H]2[C@@H](O)C[C@@]2(C)[C@H]1CC[C@]2(O)C(=O)CO` [Hydrocortisone, reference compound], in the data set on NMDA receptor (100 μM steroid), the “enhancement of NMDA-induced current (in words)” value is given as “failed to enhance”. The “inhibition of the NMDA response” value with NMDA receptor (100 μM steroid, n=6, mean ±SEM) came to 15±2.4%.

Consider `CC(=O)C1CCC2C3CC=C4CC(OS(=O)(=O)O)CCC4(C)C3CCC12C` (centres unmarked) [pregnenolone sulfate], for which the “effect on response elicited by AMPA” value in data set [1] (AMPA-induced current) is recorded as “slightly inhibited”. The “effect on response elicited by kainate” value in data set [1] (kainate-induced current) is listed as “slightly inhibited”. The “effect on non-NMDA glutamate-induced activity (in words)” value in data set [1] (summary statement) is on record as “inhibited”. Also, the “inhibition of the glycine response” value was found to be 61±2% in the data set on glycine receptor (5 μM pregnenolone sulfate) and 91±2% in the data set on glycine receptor (100 μM pregnenolone sulfate). Besides, in the data set on glycine receptor (summary statement), the “effect on glycine receptor-mediated ion channel activity (in words)” value was “slight decrease”. The EC50 in the data set with GABA receptor (FIG. 2 dose response, read-out: EC50 for inhibition of the GABA response) is 7 µM; in the data set with NMDA receptor (read-out: EC50 for enhancement of the NMDA response, FIG. 2 dose response) it was 57 µM. In the data set with GABA receptor (summary statement), the “effect on GABA receptor-mediated ion channel activity (in words)” value is “slight decrease”. The “potentiation of the NMDA response in the presence of maximal glycine versus without added glycine” value in the data set on NMDA receptor (10 μM glycine present) is “did not differ significantly”. Moreover, the “increase of response to NMDA” value with NMDA receptor (30 μM NMDA, 100 μM steroid, -70 mV) is on record as “approximately threefold”. Besides, the “enhancement of the NMDA response (percent change)” value with NMDA receptor (100 μM NMDA, n=4, mean ±SEM) came out at 86±7.5%; in the data set with NMDA receptor (1 mM NMDA, n=2, mean ±SEM), 1.3±1.3%. The “increase in the ionic current across the cellular membrane” value in the data set with NMDA receptor (appropriate concentration (summary statement)) was found to be 3 fold.

As to `NCC(=O)O` [glycine, reference compound], the “potentiation of the NMDA response by glycine in the presence of pregnenolone sulfate” value with NMDA receptor (10 μM glycine, 100 μM pregnenolone sulfate present) is recorded as “still evident”.

By EC50 is commonly meant the concentration needed to bring the measured effect to its halfway point.
